For data set [1], the system named is BRAFV600E mutant melanoma cell lines SKMEL-28, SKMEL-57 and M249. Put plainly: MTS cell viability after miR-3157 mimic transfection, vemurafenib-sensitive lines. The data set is classed as cell-based. Conditions: SKMEL-28, SKMEL-57, M249; 10 nM mimic, 72 hours (FIG. 11a). As for the experimental part: miR-3157 broadly affects melanoma cell line viability. Melanoma cell lines were divided into those that have the BRAFV600E mutation and are sensitive (a), intrinsically resistant (b) or acquired resistance to vemurafenib (c). Cell lines were transfected in triplicate with control miRNA or miR-3157 mimics (10 nM; n=2). Mock is transfectant only. Cell viability was determined using the MTS assay and calculated relative to mock transfected cells.
A375 cells were obtained from the Hubrecht Institute (Utrecht, The Netherlands); SKMEL-28, A2058 and RPMI-7951 were from the ATCC; SKMEL-57 was a gift from Dr. Patricia Groenen (Radboud University Nijmegen Medical Centre, The Netherlands); for cell line characteristics of M249, M249-AR4, M233 and M376 see (Atefi et al. 2011). A375-R, with in vitro acquired resistance to vemurafenib, was established in our lab by clonal selection of cells continually exposed to 1 μM vemurafenib. A375, A375-R, SKMEL-28, A2058 and SKMEL-57 were grown in DMEM GlutaMAX™-I (Gibco®), all other cell lines in RPMI-1640 (Gibco®). Media was supplemented with 10% FBS (Sigma), and cells were maintained in a humidified 37° C. incubator (Thermo Scientific) with 5% CO2. […]
Cells were seeded in 96-well plates and transfected the next day. […] Read-out was performed at 490 nm on a Multiskan FC plate reader (Thermo Scientific) at 72 hours post transfection.

For data set [2], the system named is mRNA levels in A375 cells. The data set is described as follows: RNA sequencing (transcriptome) of transfected A375 cells. Conditions: 100 nM mimic. Format: cell-based, human. As for the experimental part: A375 cells were plated in duplo in a 6-well plate at 1.5×10^5 cells/well. The next day, cells were transfected with 100 nM miR-3157 or Negative Control #2 mimics, using 15 μl X-tremeGENE. This procedure (plating and transfection) was repeated three times to generate biological replicates. After 72 hrs, total RNA was isolated using TRI reagent (Sigma-Aldrich) according to the manufacturer's protocol. From 30 μg total RNA, the mRNA was isolated using the MicroPoly(A)Purist kit (Ambion), and the mRNA-ONLY Eukaryotic mRNA Isolation Kit (Epicenter). RNAseq libraries were further prepared using the SOLiD™ Total RNA-Seq Kit (Life Technologies (LT)). Fragmentation of the isolated mRNA was performed by incubation in 20 μl 3 mM MgCl/10 mM Tris pH8, for 15 minutes at 95° C. The fragmented mRNA was incubated with SOLiD™ Adapter mix (LT) in STAR hybridization solution (LT), and incubated for 5 minutes at 65° C. After incubation on ice, adapter ligation was performed according to the STAR protocol (LT). The samples were run on a 10% denaturing polyacrylamide gel, and fragments from 180-300 nucleotides were excised. Reverse transcription and PCR amplification of the libraries was performed according to the STAR protocol, followed by excision of 200 to 300 nucleotide fragments from a 6% native polyacrylamide gel. Sequencing of the fragments was performed on the SOLiD™ System (LT). […]

Data set [3] concerns A2058 melanoma cell line. Put plainly: Anti-proliferative effect of small molecules, MTS assay. Format: cell-based. To be noted: Homo sapiens, A2058, intrinsic resistance, 72 hours. The protocol:
(§1) The anti-proliferative effect of small molecules in melanoma cell lines was determined with V600E BRAF inhibitor, vemurafenib (PLX-4032, 51267, Selleck) and MEK inhibitor, selumetinib (AZD-6244, S1008, Selleck). For each cell line optimal growth conditions were determined prior to the experiment. Cells were plated in a 96-well plate at 3000 cells per well (100 uL) and were grown at 37 C, 5% CO2. Small molecule mix (50 uL per well) was made for each concentration in medium. Cells were treated in triplicate 24 hours after plating. After 72 hours medium was replaced and viability was measured with the MTS assay (Promega) according to manufacturer's instructions. Cell viability inhibition is normalized against loading control (0.1% DMSO) and GraphPad Prism was used to fit the curve and calculate GI50 values.
A general note: Tetrazolium dyes change colour on reduction, which living cells bring about.

The test system of data set [4] is A375Hu melanoma cell line. Described as above. Format: cell-based. Conditions: Homo sapiens, A-375, 72 h, A375Hu (A375), vemurafenib sensitive. As for the experimental part: as §1
For data set [5], the system named is M249 melanoma cell line. The description is as above. The data set is classed as cell-based. Conditions: M249, 72 h, M249, vemurafenib sensitive. The protocol: as §1
In data set [6] the test system is M249-R4 melanoma cell line. The description is as above. Format: cell-based. To be noted: M249-R4 (M249-AR4), in vitro acquired resistance, 72 hours. As for the experimental part:
as §1

Data set [7] has as its system RPMI-7951 melanoma cell line. The description is as above. Conditions: Homo sapiens. Format: cell-based. As for the experimental part:
as §1

For data set [8], the system named is M233 melanoma cell line. Described as above. Conditions: M233, vemurafenib resistant. Format: cell-based. As for the experimental part:
as §1
(§2) A375 cells were obtained from the Hubrecht Institute (Utrecht, The Netherlands); SKMEL-28, A2058 and RPMI-7951 were from the ATCC; SKMEL-57 was a gift from Dr. Patricia Groenen (Radboud University Nijmegen Medical Centre, The Netherlands); for cell line characteristics of M249, M249-AR4, M233 and M376 see (Atefi et al. 2011). A375-R, with in vitro acquired resistance to vemurafenib, was established in our lab by clonal selection of cells continually exposed to 1 μM vemurafenib. A375, A375-R, SKMEL-28, A2058 and SKMEL-57 were grown in DMEM GlutaMAX™-I (Gibco®), all other cell lines in RPMI-1640 (Gibco®). Media was supplemented with 10% FBS (Sigma), and cells were maintained in a humidified 37° C. incubator (Thermo Scientific) with 5% CO2. Vemurafenib (PLX4032; Selleck Chemicals) was diluted in DMSO to a stock concentration of 10 mM.

Data set [9] has as its system M376 melanoma cell line. The description is as above. The data set is classed as cell-based. Conditions: M376, in vivo acquired resistance. The protocol:
as §1, §2

Data set [10] relates to SKMEL-28 melanoma cell line. Described as above. The data set is classed as cell-based. Conditions: Homo sapiens, SK-MEL-28, SKMEL-28, vemurafenib sensitive. As for the experimental part:
as §1, §2

The subject of data set [11] is SKMEL-57 melanoma cell line. The description is as above. Conditions: SKMEL-57, vemurafenib sensitive. Format: cell-based. As for the experimental part:
as §1, §2

By GI50 is commonly meant the concentration that inhibits growth by half. A higher GI50 goes with less potent growth inhibition.

For the molecule “hsa-miR-3157-5p: mature miRNA mimic, SEQ ID NO 6 UUCAGCCAGGCUAGUGCAGUCU (listed as RNA, chemistry not given here)”, the “cell viability relative to mock transfected cells” value in data set [1] is listed as “strongly reduced cell viability”. Further, the “decrease of mRNA levels of CDK4, BCL2 and BIRC5 in the RNAseq analysis” value in data set [2] (72 hrs) is given as 60%. Moreover, the “predicted targets with reduced mRNA levels” value in data set [2] (change at least 60%, p<10^-5, in silico target prediction) was 145 genes.

For the molecule `CCCS(=O)(=O)Nc1ccc(F)c(C(=O)c2c[nH]c3ncc(-c4ccc(Cl)cc4)cc23)c1F` [Vemurafenib, N-(3-{[5-(4-chlorophenyl)-1H-pyrrolo[2,3-b]pyridin-3-yl]carbonyl}-2,4-difluorophenyl)propane-1-sulfonamide], the 50% growth inhibitory concentration (GI50) in [3] is over 10000 nM; in data set [4], about 100 nM; in data set [5], about 300 nM; in data set [6], over 10000 nM; in [7] (RPMI-7951, intrinsic resistance, 72 hours, MTS), over 10000 nM; in data set [8] it was over 10000 nM. The GI50 in [9] was over 10000 nM; in data set [10] it was about 600 nM; in data set [11], about 800 nM. In addition, in data set [7] (RPMI-7951, 3 μM vemurafenib (FIG. 15a), read-out: reduction of cell viability), the cytotoxicity at 3 µM is about 20%.
